The values below are quoted from earlier work in patent US9839630B2, “Method of preparing (+)-1,4-dihydro-7-[(3S,4S)-3-methoxy-4-(methylamino)-1-pyrrolidinyl]-4-oxo-1-(2-thiazolyl)-1,8-naphthyridine-3-carboxylic acid” (Sunesis Pharmaceuticals, Inc., priority 2008, dated 2017).

For data set [1] the following is noted: data of WO 2007/146335.
For data set [2], the system named is various cancer cell lines. The settings on record: literature.
For a further data set, the system named is xenografts. Particulars: literature.
For the next data set, the system named is acute myeloid leukemia. The settings on record: human cancer patients, clinical trials.
In another data set the test system is ovarian cancer. Particulars: human cancer patients, clinical trials.

For `CO[C@H]1CN(c2ccc3c(=O)c(C(=O)O)cn(-c4nccs4)c3n2)C[C@@H]1N` [N-desmethyl compound, (+)-1,4-dihydro-7-[(3S,4S)-3-methoxy-4-amino-1-pyrrolidinyl]-4-oxo-1-(2-thiazolyl)-1,8-naphthyridine-3-carboxylic acid], the “activity in a cytotoxicity assay” value in data set [1] is recorded as “active”.

Take `CN[C@H]1CN(c2ccc3c(=O)c(C(=O)O)cn(-c4nccs4)c3n2)C[C@@H]1OC` [SNS-595, (+)-1,4-dihydro-7-[(3S,4S)-3-methoxy-4-(methylamino)-1-pyrrolidinyl]-4-oxo-1-(2-thiazolyl)-1,8-naphthyridine-3-carboxylic acid]: the “preclinical activity against various cancer cell lines” value in data set [2] is “preclinical activity”. Also, the “preclinical activity against xenografts” value with xenografts is on record as “preclinical activity”. In addition, the “clinical activity against acute myeloid leukemia” value in the data set on acute myeloid leukemia is “clinical activity”. Further, in the data set with ovarian cancer, the “clinical activity against ovarian cancer” value is reported as “clinical activity”.
